In US12606591B2, “Process for the preparation of drospirenone as a fine powder through a double change of crystalline form” (INDUSTRIALE CHIMICA S.R.L., priority 2021, dated 2026):

Assay: Powder particle size by Helos laser particle size analyzer with Quixel disperser
Type: physicochemical
Protocol: The powders particle size was measured using a Helos laser particle size analyzer equipped with a Quixel disperser (instrument and disperser manufactured and sold by the company Sympatec GmbH of Clausthal-Zellerfeld, Germany), using ultrapure milli-Q water as the dispersing medium. The sample was first dispersed in milli-Q water by adding a few drops of Tween® 80 (polyethylene glycol sorbitan monooleate, sold by Merck) and placed in a sonicating bath for 5 min, then the suspension was added to the dispersing medium loaded into the instrument until an optical density value OD=4-15% is obtained. The measurement (30 s background +30 s measurement) was performed by operating under continuous sonication with the recirculation pump set at 20%.

C[C@]12CCC(=O)C=C1[C@@H]1C[C@@H]1[C@H]1[C@@H]3[C@@H]4C[C@@H]4[C@@]4(CCC(=O)O4)[C@@]3(C)CC[C@@H]12 [Drospirenone, 17β-hydroxy-6β, 7β; 15, 16β-dimethylene-3-oxo-17α-pregn-4-ene-21-carboxylic acid γ-lactone]
size of all particles (Crystalline Form I powder of Example 3 (process of the invention), FIG. 9, cumulative curve): lower than 110 μm | size of the largest particles present (Crystalline Form I powder of Example 4 (comparative), FIG. 10): over 150 μm | peak of the sample particles size distribution (Crystalline Form I powder of Example 4 (comparative, no transformation to Form II), FIG. 10): about 70 μm
